This is an account of results in patent publication US11865182B2, “Product and process for employing GC7 (N1-guanyl-1,7-diaminoheptane) based antigen binding conjugates in cancer therapy” (priority 2017, dated 2024).

Structures are written as SMILES.

This assay concerns bi-lateral subcutaneous tumors derived from 779E cells. Nature of the assay: in-vivo analysis of ADCs cytotoxic effect in subcutaneous mouse model (loss of GFP fluorescence signal, IVIS imaging). The conditions noted are these: nude mice, 779E subcutaneous tumors, tail vein injection, after 12 days. As for the experimental part: After purification via gel chromatography, where the cytotoxicity effect of the drug on the eIF5A positive tumor cell compared to eIF5A negative cells was determined by measuring the loss of fluorescence signal of the GFP tagged tumor cells after administration of the ADC in vivo via tail vein injection in mice using an IVIS Spectrum in vivo imaging system.

With `N=C(N)NCCCCCCCN` [GC7, N1-guanyl-1,7-diaminoheptane], the tumor growth inhibition is given as 0.4%.
